Experimental data published in US7615377B2, “Fluorescein-based metal sensors” (Massachusetts Institute of Technology, priority 2003, dated 2009).
Read-outs that look alike come from different tables or passages of the source.

Tests used:
[1] = Fluorescence response of sensor to Hg^2+ (fluorescence spectroscopy, integrated emission); format: binding
Description: General Spectroscopic Procedures. Ultrol grade PIPES (piperazine-N,N′-bis(2-ethanesulfonic acid) from Calbiochem, KCl (99.997%) and anhydrous HgCl2 (99.998%) were purchased and used as received. Millipore filtered water was used to prepare all aqueous solutions. With the exception of the pKa determination, all spectroscopic measurements were conducted at neutral pH with 50 mM PIPES, 100 mM KCl buffer adjusted to pH 7. An Orion glass electrode, calibrated prior to use, was employed to record solution pH. Mercury solutions were prepared from 10 mM stock solutions of HgCl2. Stock solutions of MS1 (1 mM in DMSO) was prepared, stored at −4° C., and thawed in the dark immediately prior to use. After addition of this stock solution to aqueous buffers, the resulting solution contained 0.1% DMSO for fluorescence and 1% DMSO for absorption measurements. The KaleidaGraph software package was used to manipulate all spectral data.
Fluorescence Spectroscopy. Emission spectra were obtained with a Hitachi F-3010 spectrofluorimeter linked to a Pentium PC running the SpectraCalc software package. A rhodamine quantum counter was used to normalize the spectra for excitation intensity, and manufacturer-supplied correction curves were used to normalize the emission spectra. Manufacturer supplied photomultiplier curves were used to correct for emission intensity. A circulating water bath was used during all experiments to regulate the temperature at 25.0° C.±0.1° C. Spectra were obtained with 3 nm slit widths and either a 240 nm/min or 600 nm/min scan speed. All measurements were conducted at least in triplicate.

[2] = Determination of protonation constants (fluorescence dependence on pH); format: physicochemical; conditions: 10 mM KOH, 1 μM probe; for pKa, formation of a non-fluorescent isomer / pKa, protonation of the tertiary amine: 100 mM KCl, pH ~12 to ~3; for pKa: aqueous solution of 100 mM KCl
Description: Determination of Protonation Constants. The pKa values for MS1 affect fluorescence were determined by plotting the integrated emission intensity versus pH from ˜12 to ˜4. In a typical experiment, a 30 mL solution of 1 μM MS1 in 100 mM KCl, 10 mM KOH was prepared (pH ˜12). Aliquots of 6 N, 2 N, 1 N, 0.5 N, and 0.5 N HCl were added to achieve pH changes of approximately […], and the emission spectrum was recorded after each addition. […] Upon excitation at 500 nm, the emission spectra were integrated over the range 510 nm to 650 nm, normalized and plotted against pH. The data were fit to the non-linear expression previously described.

[3] = Selectivity of mercury-induced fluorescence in the presence of other metal ions; format: binding; conditions: for fluorescence increase upon addition of Hg^2+: 1 μM probe, excitation 500 nm
Description: Selectivity of Mercury-Induced Fluorescence in the Presence of Other Metal Ions. The selectivity of MS1 for Hg^2+ against a background of various alkali, alkaline earth, transition metal ions, and Zn(II), Cd(II) or Pb(II) was investigated by using fluorescence spectroscopy. Aqueous metal ion solutions of Li(I), Na(I), Rb(I), Mg(II), Ca(II), Sr(II), Ba(II), Mn(II), Co(II), Ni(II), Cd(II), and Hg^2+ were prepared from the chloride salts. The Cu(II) solution was prepared from copper sulfate and the Pb(II) was prepared from lead nitrate. A solution of Cr(III) was prepared from chromium acetate and stored at pH 1. Solutions of Fe(II) were prepared immediately before use with ferrous ammonium sulfate and water that was thoroughly purged with Ar. All stock solutions were ˜10 mM, with the exception of 100 mM NaCl. In a typical experiment, the emission spectrum of the free dye was recorded. A 20 μL aliquot of a ˜10 mM metal solution was then added to a 1 μM solution of MS1 (3 mL, for a concentration of metal ion at about 1 to about 50 ppm, depending on the molecular weight of the metal ion tested) and the emission spectrum was recorded with excitation at 500 nm. Subsequently, a 20 μL portion of 10 mM HgCl2 was added and the emission spectrum was obtained. The spectra were integrated from 510-650 nm and normalized with respect to the free dye.

[4] = Quantum yield and extinction coefficient measurements (reference fluorescein in 0.1 N NaOH); format: physicochemical
Excerpt: Quantum yield, Φ, may be obtained by comparison of the integrated area of the corrected emission spectrum of the sample with that of a reference solution. A preferred reference solution is a solution of fluorescein in 0.1 N NaOH, quantum efficiency 0.95. The concentration of the reference is adjusted to match the absorbance, Abs, of the test sample. The quantum yields may be calculated using the following equation: […]
Optical Absorption Spectroscopy. UV-visible spectra were obtained by using either a Cary IE scanning spectrophotometer or a Hewlet Packard diode array spectrophotometer. Both instruments were controlled by Pentium PCs and were run using the manufacturer supplied software packages. A circulating water bath was used during acquisition to maintain the temperature at 25.0° C.±1.0° C. Samples were contained in 1-cm path length quartz cuvettes (3.5 mL volume). All manipulations were performed at least three times.
Quantum Yield Measurements. The quantum yield of MS1 was determined by comparison to fluorescein in 0.1 N NaOH (φ=0.95) as a reference. In a typical experiment, a 6 mL solution of ˜1 μM MS1 was prepared. For metal-free studies, 10 μL of 100 mM K4EDTA was added to chelate any adventitious metal ions. To determine the quantum efficiencies of the metal-bound dye, 10 μL of a 10 mM HgCl2 solution was added to a 1 μM MS1 solution. The concentration of the reference solution was adjusted such that Amax (490 nm) equaled Amax of MS1 (505 nm) or Amax of the Hg^2+ complex (501 nm), and the excitation wavelength was chosen as the wavelength determined from where the reference and probe excitation spectra intersect. Excitation was at 497 nm for MS1 and at 496 nm for the Hg^2+ complex. Emission spectra were integrated from 510-650 nm and the quantum yields were calculated standard methods.

[5] = Reversibility of Hg^2+ binding upon addition of TPEN
[6] = Water solubility of the probe; format: physicochemical
[7] = pH 7, metal-free, at absorption maximum (497 nm sensor 1; 505 nm MS1)
[8] = pH 7, with Hg^2+, at absorption maximum (500 nm sensor 1; 501 nm MS1)

## O=C(O)c1ccccc1-c1c2cc(Cl)c(=O)cc-2oc2c(CNc3ccccc3CN(CCS)Cc3ccccn3)c(O)ccc12 [sensor 4]
[1]; crude reaction mixture from the synthesis, in the presence of chloride ion
  fluorescence response upon addition of Hg^2+: positive fluorescence response

## CCSCCSCCN(CCSCCSCC)Cc1ccccc1NCc1c(O)ccc2c(-c3ccccc3C(=O)O)c3cc(Cl)c(=O)cc-3oc12 [sensor 6]
[1]
  fluorescence change upon Hg^2+ coordination: fluorescence decrease

## CCSCCN(CCSCC)Cc1c2oc3c(CN(CCSCC)CCSCC)c(O)c(Cl)cc3c(-c3ccccc3C(=O)O)c-2cc(Cl)c1=O [sensor 7]
[1]
  fluorescence change upon Hg^2+ coordination: fluorescence decrease

## CC(C)(S)CN(Cc1ccccn1)Cc1c(O)ccc2c(-c3ccccc3C(=O)O)c3cc(Cl)c(=O)cc-3oc12 [sensor 2]
[2]
  pKa, formation of a non-fluorescent isomer: 4.7
  pKa, protonation of the tertiary amine: 8.0
[3]; pH 7
  selectivity of fluorescence increase for Hg^2+ over other cations: selective for Hg^2+
[3]; pH 7 (50 mM PIPES, 100 mM KCl)
  fluorescence increase upon addition of Hg^2+: 1.5 fold
[3]; pH 11
  selectivity of fluorescence increase for Hg^2+ over other cations: selective for Hg^2+
[3]; pH 11 (50 mM CABS, 100 mM KCl)
  fluorescence increase upon addition of Hg^2+: 6 fold

## CCSCCN(CCSCC)Cc1ccccc1NCc1c(O)ccc2c(-c3ccccc3C(=O)O)c3cc(Cl)c(=O)cc-3oc12 [sensor 3, 2-{5-[(2-{[Bis-(2-ethylsulfanyl-ethyl)-amino]-methyl}-phenylamino)-methyl]-2-chloro-6-hydroxy-3-oxo-3H-xanthen-9-yl}-benzoic acid]
[1]; 500 nM probe, pH 7, read-out: EC50 (concentration of Hg^2+ required to achieve 50% of maximum fluorescence)
  EC50: 410 nM
[1]; pH 7 (50 mM PIPES, 100 mM KCl)
  increase in integrated emission upon addition of Hg^2+: ~7 fold
[1]; pH 7 (50 mM PIPES, 100 mM KCl), listed as MS1
  increase in integrated emission upon addition of Hg^2+: ~5 fold
[4]; pH 7
  absorption maximum, free sensor: 505 nm
  increase in brightness upon Hg^2+ binding: ~3.3 fold
  increase in quantum yield upon Hg^2+ coordination: ~2.75 fold
[4]; pH 7, 50 mM PIPES, 100 mM KCl, EDTA present
  emission maximum, free sensor: 524 nm
[4]; pH 7, metal-free
  quantum yield, free sensor: 0.04
[4]; [7]
  extinction coefficient (epsilon), free sensor: 61,400 M^−1 cm^−1
[4]; pH 7, metal-free, at absorption maximum (497 nm sensor 1; 505 nm MS1), listed as MS1
  extinction coefficient (epsilon), free sensor: 61,300 M^−1 cm^−1
[4]; pH 7, with Hg^2+
  absorption maximum, Hg^2+-bound: 501 nm
  emission maximum, Hg^2+-bound: 528 nm
  quantum yield, Hg^2+-bound: 0.11
[4]; [8]
  extinction coefficient (epsilon), Hg^2+-bound: 73,200 M^−1 cm^−1
[2]; pH ~12 to ~3, read-out: pKa, formation of a non-fluorescent isomer
  pKa: 4.8
[2]; pH ~12 to ~3, read-out: pKa, protonation of the aniline nitrogen atom
  pKa: 7.1
[3]; Li(I), Na(I), Rb(I), Mg(II), Ca(II), Sr(II), Ba(II)
  Hg response in a background of alkali and alkaline earth metals: unaffected
[3]; Zn(II), Cd(II), Cr(III), Pb(II) background
  effect of Zn(II), Cd(II), Cr(III), Pb(II) on fluorescence response to Hg^2+: do not inhibit
[3]; first-row transition metal ions
  interference of first-row transition metal ions with Hg^2+-induced fluorescence increase: only Cu(II) interferes
[3]; pH 7
  selectivity of fluorescence increase for Hg^2+ over other cations: selective for Hg^2+
[5]
  reversibility of Hg^2+ binding: reversibly
[5]; 1 μM sensor, 1 equiv Hg^2+ and 1 equiv TPEN alternately, excitation 500 nm
  normalized integrated emission versus cycle number, Hg^2+/TPEN cycles: restoration and decrease of fluorescence upon addition of 1 equiv Hg^2+ and 1 equiv TPEN, respectively, over the course of five cycles
[5]; 1 equivalent TPEN added to stoichiometric mixture of sensor and Hg^2+
  fluorescence after TPEN addition, distance from the background value: ≤ 20%
[6]
  water solubility: water-soluble

## O=C(O)c1ccccc1-c1c2cc(Cl)c(=O)cc-2oc2c(CN(CCS)Cc3ccccn3)c(O)ccc12 [sensor 1]
[1]; pH 11 (50 mM CABS, 100 mM KCl), 0-3 equivalents Hg^2+, excitation 504 nm
  increase in integrated emission upon addition of Hg^2+: ~6 fold
[4]; pH 7, metal-free
  quantum yield, free sensor: 0.27
[4]; [7]
  extinction coefficient (epsilon), free sensor: 61,600 M^−1 cm^−1
[4]; pH 7, with Hg^2+
  quantum yield, Hg^2+-bound: 0.27
[4]; [8]
  extinction coefficient (epsilon), Hg^2+-bound: 69,000 M^−1 cm^−1
[4]; pH 11, metal-free
  quantum yield, free sensor: 0.07
[4]; pH 11, metal-free, 504 nm
  extinction coefficient (epsilon), free sensor: 60,800 M^−1 cm^−1
[4]; pH 11, with Hg^2+
  quantum yield, Hg^2+-bound: 0.24
[4]; pH 11, with Hg^2+, 507 nm
  extinction coefficient (epsilon), Hg^2+-bound: 78,300 M^−1 cm^−1
[2]
  pKa, formation of a non-fluorescent isomer: 4.6
  pKa, protonation of the tertiary amine: 8.2
[3]; pH 7
  selectivity of fluorescence increase for Hg^2+ over other cations: selective for Hg^2+
[3]; pH 7 (50 mM PIPES, 100 mM KCl)
  fluorescence increase upon addition of Hg^2+: 1.5 fold
[3]; pH 7 (50 mM PIPES, 100 mM KCl), listed as Sensor 1
  fluorescence increase upon addition of Hg^2+: ~2.5 fold
[3]; pH 11
  selectivity of fluorescence increase for Hg^2+ over other cations: selective for Hg^2+
[3]; pH 11 (50 mM CABS, 100 mM KCl)
  fluorescence increase upon addition of Hg^2+: 5 fold
